Data published in article PMC11099021, “Mycobacterial biotin synthases require an auxiliary protein to convert dethiobiotin into biotin” (Nature Communications, 2024).

What was measured:
[1] = biological target: BioB.tb-BsaP (Mycobacterium tuberculosis, UniProt P9WPQ7); assay: biotin formation by LC-MS, Morrison fit; type: biochemical
Text: biotin formation by LC-MS, Morrison fit on BioB.tb-BsaP | acidomycin is indeed a potent inhibitor of BioB.tb displaying an inhibition constant Ki of […]

[2] = biological target: T1, BioB.ec (Escherichia coli, UniProt P12996); assay: biotin formation by LC-MS; type: biochemical; conditions: 100 µM DTB, 100 µM SAM; FldA/FNR/NADPH, MtnN; pH 8.0; 37 °C; anaerobic; without BsaP
T1 sequence (P12996 1-346): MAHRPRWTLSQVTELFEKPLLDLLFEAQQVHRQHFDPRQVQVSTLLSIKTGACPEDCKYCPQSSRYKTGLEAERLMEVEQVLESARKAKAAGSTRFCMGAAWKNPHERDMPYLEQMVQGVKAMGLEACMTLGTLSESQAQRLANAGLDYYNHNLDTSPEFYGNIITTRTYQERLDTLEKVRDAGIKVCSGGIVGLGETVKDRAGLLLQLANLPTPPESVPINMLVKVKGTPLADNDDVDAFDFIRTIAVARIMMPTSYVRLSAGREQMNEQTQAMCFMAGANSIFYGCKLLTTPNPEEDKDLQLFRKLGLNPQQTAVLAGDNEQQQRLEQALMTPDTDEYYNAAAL

[3] = biological target: T2, BsaP (Mycobacterium tuberculosis, UniProt P9WLT6)
T2 chain: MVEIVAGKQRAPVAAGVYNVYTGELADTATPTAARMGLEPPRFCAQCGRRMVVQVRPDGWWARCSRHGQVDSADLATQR

Molecule: O=C(O)CCCCC[C@@H]1NC(=O)CS1 [acidomycin]
- Ki [1]: 110 nM

Molecule: C[C@@H]1NC(=O)N[C@@H]1CCCCCC(=O)O [DTB]
- biotin formation by LC-MS [2]: No difference in biotin production was observed when BsaP was added to BioB.ec

B1: BioB (protein)
chain: TQAATRPTNDAGQDGGNNSDILVVARQQVLQRGEGLNQDQVLAVLQLPDDRLEELLALAHEVRMRWCGPEVEVEGIISLKTGGCPEDCHFCSQSGLFASPVRSAWLDIPSLVEAAKQTAKSGATEFCIVAAVRGPDERLMAQVAAGIEAIRNEVEINIACSLGMLTAEQVDQLAARGVHRYNHNLETARSFFANVVTTHTWEERWQTLSMVRDAGMEVCCGGILGMGETLQQRAEFAAELAELGPDEVPLNFLNPRPGTPFADLEVMPVGDALKAVAAFRLALPRTMLRFAGGREITLGDLGAKRGILGGINAVIVGNYLTTLGRPAEADLELLDELQMPLKALNASL
- Kd [3]: 950 nM
